Literature values, collected in US20260166131A1, “METHOD FOR PROMOTING PATHOLOGICAL TDP-43 PROTEIN DEGRADATION, AND DRUG” (TALENGEN INTERNATIONAL LIMITED, priority 2022, published 2026).
Several values for one entry are separate records, joined by “and”; a condition that tells them apart may be missing. Identical values can stand only once. Like-named read-outs stand apart in the source and are kept apart here.

System: ALS patients
Details: for ALSFRS-R score before dosing: literature
[1] = Edaravone 6 months, intravenous injection
[2] = Riluzole 6 months, taking orally

SMILES | ALSFRS-R score after dosing [1] | ALSFRS-R scoring change [1] | ALSFRS-R score before dosing (Edaravone) | ALSFRS-R score after dosing [2] | ALSFRS-R scoring change [2] | ALSFRS-R score before dosing (Riluzole)
CC1=NN(c2ccccc2)C(=O)C1 [Edaravone] | 36.89 | −5.01±0.64 points and −5.01 points | 41.9 |  |  | 
Nc1nc2ccc(OC(F)(F)F)cc2s1 [Riluzole] |  |  |  | 33.2 | −7.0+7.1 points and −7.0 points | 40.2
